Assay results reported in patent US20020115611A1, “Methods for screening GABA-modulatory compounds for specified pharmacological activities” (priority 1999, published 2002).
pEC50: −log10 of the molar value. Like-named read-outs stand apart in the source and are kept apart here.

Assays:
[1] = biological target: α3β3γ2 GABAA subtype receptor (Homo sapiens, UniProt P18507+P34903); experiment: cell-based; conditions: for pEC50 / oocyte electrophysiology maximum potentiation α3β3γ2: human subunits, GABA at EC10; for oocyte electrophysiology maximum potentiation α3β3γ2: negative = inverse agonism; for Emax: read-out: oocyte electrophysiology maximum potentiation α3β3γ2
Description: (§1) The in vitro efficacy and EC50 value of the test compound may be determined by measuring the chloride flux at the surface of a cell expressing the α,β, and γ subunits of the GABAA receptor in response to GABA by the two electrode voltage-clamp technique. While a variety of cells are suitable for use herein, the preferred cells used in this technique are Xenopus laevis oocytes that have been injected with non-polyadenylated CRNA coding for human derived α, βand γ GABAA subunits. The preferred form of the γ subunit is the normally expressed long form although an alternatively spliced form may be used.
(§2) Assays are carried out as described previously in White and Gurley, 1995 and White, et al., 1995. Xenopus laevis oocytes are enzymatically isolated and injected with non-polyadenylated cRNA for human derived α, β and γ GABAA subunits, respectively. In more preferred embodiments cRNA for the α1β2γ2, α2β3γ2, α3β3γ2, and α5β3γ2 subunit combinations are injected. Only one of these subunit combinations is injected per cell. For each subunit combination, sufficient message is injected to result in current amplitudes of >10 nA when 1 μM GABA is applied. Electrophysiological recordings are carried out using the two electrode voltage-clamp technique at a membrane holding potential of −70 mV.
(§3) Compounds are evaluated against a GABA concentration that evokes <10% (EC10) of the maximal evocable GABA current. Each oocyte is exposed to increasing concentrations of compound in order to evaluate a concentration/effect relationship.
(§4) Specificity of a compound for the Ro15-1788 site is determined following completion of the concentration/effect curve. After washing the oocyte sufficiently to remove previously applied compound, the oocyte is exposed to GABA and 1 μM Ro15-1788, followed by exposure to GABA, 1 μM Ro15-1788, and compound. Percent change due to addition of compound is calculated as described above. Any percent change observed in the presence of Ro15-1788 is subtracted from the percent changes in current amplitude observed in the absence of 1 μM Ro15-1788. These net values are used for the calculation of average activity and EC50 values.
(§5) To evaluate average activity and EC50 values, the concentration/effect data are averaged across cells and fit to the logistic equation. Average values are reported as mean±standard error.

[2] = biological target: α5β3γ2 GABAA subtype receptor (Homo sapiens, UniProt P18507+P31644); experiment: cell-based; conditions: for Emax: read-out: oocyte electrophysiology maximum potentiation α5β3γ2
Description: as §1, §2, §3, §4, §5

[3] = biological target: α1β2γ2 GABAA subtype receptor (Homo sapiens, UniProt P14867+P18507); experiment: cell-based; conditions: for oocyte electrophysiology maximum potentiation α1β2γ2 / pEC50: human subunits, GABA at EC10; for oocyte electrophysiology maximum potentiation α1β2γ2: negative = inverse agonism; for Emax: read-out: oocyte electrophysiology maximum potentiation α1β2γ2
Description: as §1, §2, §3, §4, §5

[4] = biological target: α2β3γ2 GABAA subtype receptor (Homo sapiens, UniProt P18507+P47869); experiment: cell-based; conditions: for pEC50 / oocyte electrophysiology maximum potentiation α2β3γ2: human subunits, GABA at EC10; for oocyte electrophysiology maximum potentiation α2β3γ2: negative = inverse agonism; for Emax: read-out: oocyte electrophysiology maximum potentiation α2β3γ2
Description: as §1, §2, §3, §4, §5

[5] = test system: rats; experiment: step-down passive avoidance; format: in vivo; conditions: rat; cognitive impairment side effect (Table VII); NS = no statistically significant effect over dose range
Description: (§6) A statistically significant effect in the spatial water maze, step-down passive avoidance, spontaneous locomotor activity, Porsolt swim test, or the elevated plus maze models is defined as p<0.05 using a valid parametric statistical test. Likewise, no statistically significant effect is defined in these models as p>0.05 using a valid parametric statistical test. No statistically significant effect for either of the seizure threshold models is defined as a decrease of less than 25% in the seizure threshold in the presence of a seizure inducing drug or a result that is not significant at the p<0.05 level.
In step-down passive avoidance a rat is placed on a platform located in the center of an electrified grid floor that is contained within a large (45 cm×45 cm×50 cm) white translucent Plexiglas® enclosure. The natural inclination of the rat is to step off the platform and investigate its surroundings. […] Each time the animal steps off the platform it receives a mild foot shock of 2 mAmps×6 sec. Following each shock the animal is removed from the box, placed in its cage for a one minute inter-trial interval, and then returned to the platform. The latency to step down on each trial, the number of trials taken to reach criterion during training and the retention latency are collected.
Testing is conducted approximately 24 hrs. after training. Drug-free animals are placed on the platform in the box in which they will have been trained and the latency to step down onto the grid floor is recorded for one trial as a measure of memory retention.

[6] = test system: rats; experiment: Porsolt forced swim test; format: in vivo; conditions: rat, administered IV; antidepressant effect
Description: as §6
The effects measured in this model have been correlated to antidepressant efficacy for drugs. The paradigm of this model is that an effective antidepressant compound will cause a rat to make greater attempts to escape a water-filled cylinder than a rat given vehicle only.
Animals used in this study were non-naive male Sprague Dawley Rats (SASCO, St. Louis) weighing between 280-350 grams. The test apparatus consists of 6 clear Plexiglas cylinders 40 cm high×19 cm wide. Cylinders are filled to 18 cm with 25° C. water. Each rat is placed in a cylinder for a 15 minute training session. Following either subchronic or acute dosing of either vehicle (0.5% methylcellulose) of compound, animals are brought back 24 hours later for a 5 minute test session. These test session is videotaped for later scoring.
Subchronic dosing consists of administering drug three times in the 24-hour period between training and testing. The drug is administered 24 hrs., 5 hrs., and 1 hr. prior to the test session. Acute dosing consists of administering the drug once, 1 hour prior to the test session. Scoring is done using a time-sampling computer program written in Visual Basic and run in DOS. […] These sampling score are then converted into percentages of the test session.

[7] = test system: rats; experiment: spontaneous locomotor activity; format: in vivo; conditions: rat, IV; sedation as side effect (Tables V and IX); NS = no statistically significant effect over dose range
Description: as §6
Spontaneous locomotor activity can be measured to determine sedative effects of compounds. Locomotor activity is measured in eight computerized Digiscan-16 Animal Activity Monitors (Omnitech Electronics, Columbus, Ohio) equipped with 48 infrared photocell emitters and detectors. Each box is constructed of Plexiglas sides and floor. Horizontal activity is detected by a set of horizontal sensors on the front to back walls and a second group of sensors on the side to side walls located 5 cm above the cage floor. Vertical activity is detected by a third set of sensors on the side to side walls located 13.5 cm above the cage floor. The rats are tested in the presence of white noise (62 dB) and red light (60 watt). […]

[8] = oocyte electrophysiology EC50 α3β3γ2, Xenopus laevis oocytes
[9] = oocyte electrophysiology EC50 α5β3γ2, Xenopus laevis oocytes, human subunits, GABA at EC10
[10] = oocyte electrophysiology EC50 α1β2γ2, Xenopus laevis oocytes
[11] = oocyte electrophysiology EC50 α2β3γ2, Xenopus laevis oocytes
[12] = Xenopus laevis oocytes, human subunits, GABA at EC10, read-out: oocyte electrophysiology EC50 α5β3γ2
[13] = Xenopus laevis oocytes, read-out: oocyte electrophysiology EC50 α3β3γ2
[14] = Xenopus laevis oocytes, read-out: oocyte electrophysiology EC50 α2β3γ2
[15] = Xenopus laevis oocytes, read-out: oocyte electrophysiology EC50 α1β2γ2

Sequence of α5β3γ2 GABAA subtype receptor (P31644 32-462): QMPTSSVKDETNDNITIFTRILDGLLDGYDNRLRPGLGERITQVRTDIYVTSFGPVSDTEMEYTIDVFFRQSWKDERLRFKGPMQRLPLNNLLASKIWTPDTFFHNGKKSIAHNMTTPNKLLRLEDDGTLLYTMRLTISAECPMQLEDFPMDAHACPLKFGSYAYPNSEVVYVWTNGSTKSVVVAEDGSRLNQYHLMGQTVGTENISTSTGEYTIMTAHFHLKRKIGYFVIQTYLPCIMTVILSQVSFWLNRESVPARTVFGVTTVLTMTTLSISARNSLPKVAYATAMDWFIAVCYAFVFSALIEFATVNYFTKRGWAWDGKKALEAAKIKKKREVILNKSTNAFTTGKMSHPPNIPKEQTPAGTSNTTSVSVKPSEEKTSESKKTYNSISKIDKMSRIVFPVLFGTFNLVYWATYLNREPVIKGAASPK
Sequence of α5β3γ2 GABAA subtype receptor (P28472 26-473 partner): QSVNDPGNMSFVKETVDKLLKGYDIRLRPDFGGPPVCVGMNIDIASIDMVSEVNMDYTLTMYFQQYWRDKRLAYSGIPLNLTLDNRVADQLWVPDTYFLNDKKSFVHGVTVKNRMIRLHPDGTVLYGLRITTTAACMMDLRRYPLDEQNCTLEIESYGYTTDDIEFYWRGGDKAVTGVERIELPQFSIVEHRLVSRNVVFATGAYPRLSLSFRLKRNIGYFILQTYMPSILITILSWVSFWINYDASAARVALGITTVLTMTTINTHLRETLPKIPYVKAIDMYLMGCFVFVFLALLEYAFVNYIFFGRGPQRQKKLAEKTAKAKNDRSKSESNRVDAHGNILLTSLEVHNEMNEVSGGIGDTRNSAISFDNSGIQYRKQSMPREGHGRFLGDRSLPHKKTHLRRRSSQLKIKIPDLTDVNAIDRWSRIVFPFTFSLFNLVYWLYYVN
Sequence of α5β3γ2 GABAA subtype receptor (P18507 40-475): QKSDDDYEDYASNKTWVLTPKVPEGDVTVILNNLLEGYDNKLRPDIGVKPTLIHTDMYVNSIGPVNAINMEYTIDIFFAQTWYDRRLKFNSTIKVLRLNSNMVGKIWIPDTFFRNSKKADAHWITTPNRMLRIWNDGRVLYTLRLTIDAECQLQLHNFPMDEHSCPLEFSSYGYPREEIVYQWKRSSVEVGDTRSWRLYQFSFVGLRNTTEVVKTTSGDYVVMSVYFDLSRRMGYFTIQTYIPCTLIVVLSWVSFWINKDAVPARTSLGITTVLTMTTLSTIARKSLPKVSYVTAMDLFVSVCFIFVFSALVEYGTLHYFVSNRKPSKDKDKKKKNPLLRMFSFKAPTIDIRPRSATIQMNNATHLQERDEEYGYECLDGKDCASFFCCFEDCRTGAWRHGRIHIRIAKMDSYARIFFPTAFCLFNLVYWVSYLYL
Sequence of α2β3γ2 GABAA subtype receptor (P47869 29-451): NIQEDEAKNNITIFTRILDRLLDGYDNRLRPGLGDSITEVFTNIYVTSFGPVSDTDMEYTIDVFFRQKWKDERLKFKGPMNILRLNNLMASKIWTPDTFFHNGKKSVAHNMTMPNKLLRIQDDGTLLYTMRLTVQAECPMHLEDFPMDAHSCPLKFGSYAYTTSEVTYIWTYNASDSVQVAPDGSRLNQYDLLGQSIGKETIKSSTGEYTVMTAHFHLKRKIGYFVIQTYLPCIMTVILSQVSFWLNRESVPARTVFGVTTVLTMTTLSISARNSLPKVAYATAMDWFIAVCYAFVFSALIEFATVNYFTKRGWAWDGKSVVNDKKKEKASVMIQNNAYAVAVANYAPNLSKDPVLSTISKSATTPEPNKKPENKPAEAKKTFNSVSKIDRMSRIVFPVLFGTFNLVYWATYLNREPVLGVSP
Sequence of α2β3γ2 GABAA subtype receptor (P28472 26-473 partner): as the sequence (P28472 26-473 partner) above
Sequence of α2β3γ2 GABAA subtype receptor (P18507 40-475): as the sequence (P18507 40-475) above
Sequence of α3β3γ2 GABAA subtype receptor (P34903 29-492): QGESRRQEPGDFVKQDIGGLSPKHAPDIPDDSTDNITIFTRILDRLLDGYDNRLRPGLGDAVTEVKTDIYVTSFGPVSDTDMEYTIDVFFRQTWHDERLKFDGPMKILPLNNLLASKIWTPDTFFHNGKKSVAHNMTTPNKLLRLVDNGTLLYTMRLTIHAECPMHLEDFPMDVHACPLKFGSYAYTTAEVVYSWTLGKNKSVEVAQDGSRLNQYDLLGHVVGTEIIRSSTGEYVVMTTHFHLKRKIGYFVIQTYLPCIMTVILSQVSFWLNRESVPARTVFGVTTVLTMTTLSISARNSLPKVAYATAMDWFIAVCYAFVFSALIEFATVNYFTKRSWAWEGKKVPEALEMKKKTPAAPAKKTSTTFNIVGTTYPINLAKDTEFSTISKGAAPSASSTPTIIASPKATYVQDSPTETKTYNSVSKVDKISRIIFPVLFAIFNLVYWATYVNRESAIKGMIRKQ
Sequence of α3β3γ2 GABAA subtype receptor (P28472 26-473 partner): as the sequence (P28472 26-473 partner) above
Sequence of α3β3γ2 GABAA subtype receptor (P18507 40-475): as the sequence (P18507 40-475) above
Sequence of α1β2γ2 GABAA subtype receptor (P14867 28-456): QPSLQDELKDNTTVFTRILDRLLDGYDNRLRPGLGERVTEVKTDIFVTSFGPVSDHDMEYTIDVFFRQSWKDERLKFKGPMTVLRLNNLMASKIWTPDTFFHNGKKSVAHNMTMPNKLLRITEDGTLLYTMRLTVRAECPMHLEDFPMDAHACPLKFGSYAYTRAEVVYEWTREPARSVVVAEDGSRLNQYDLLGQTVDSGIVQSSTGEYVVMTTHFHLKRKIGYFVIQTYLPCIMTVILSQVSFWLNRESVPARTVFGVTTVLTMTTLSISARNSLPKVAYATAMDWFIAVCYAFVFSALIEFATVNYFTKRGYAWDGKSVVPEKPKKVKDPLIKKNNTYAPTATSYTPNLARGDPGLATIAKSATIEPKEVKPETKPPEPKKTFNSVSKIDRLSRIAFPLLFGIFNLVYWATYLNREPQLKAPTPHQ
Sequence of α1β2γ2 GABAA subtype receptor (P47870 25-512 partner limits assumed): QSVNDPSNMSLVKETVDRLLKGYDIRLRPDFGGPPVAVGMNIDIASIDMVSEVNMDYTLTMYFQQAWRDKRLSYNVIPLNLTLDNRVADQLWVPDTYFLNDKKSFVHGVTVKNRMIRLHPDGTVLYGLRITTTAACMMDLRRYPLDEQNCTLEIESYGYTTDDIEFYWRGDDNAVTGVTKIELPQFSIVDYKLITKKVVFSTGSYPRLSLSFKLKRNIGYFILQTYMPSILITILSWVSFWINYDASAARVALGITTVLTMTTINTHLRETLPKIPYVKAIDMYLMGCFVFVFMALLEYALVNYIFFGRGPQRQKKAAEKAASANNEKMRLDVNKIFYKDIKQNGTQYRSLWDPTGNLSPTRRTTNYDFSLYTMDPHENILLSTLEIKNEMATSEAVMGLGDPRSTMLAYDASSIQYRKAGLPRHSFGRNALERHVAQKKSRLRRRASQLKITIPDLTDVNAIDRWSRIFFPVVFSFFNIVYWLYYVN
Sequence of α1β2γ2 GABAA subtype receptor (P18507 40-475): as the sequence (P18507 40-475) above

Compound	pEC50 [1, 8]	pEC50 [2, 9]	oocyte electrophysiology maximum potentiation α1β2γ2 ([3]; Xenopus laevis oocytes) [%]	pEC50 [3, 10]	pEC50 [4, 11]	oocyte electrophysiology maximum potentiation α2β3γ2 ([4]; Xenopus laevis oocytes) [%]	pEC50 [2, 12]	pEC50 [1, 13]	also measured
O=C(Nc1ccc(OCCO)cc1)c1c[nH]c2c1C(=O)CCC2 [compound 12]	7.74	7.72	15	7.74	7.96	–	–	–	–
O=C(Nc1cccc(F)c1)c1c[nH]c2c(c1=O)CCC2 [compound 5]	7.68	–	–	–	8.05	44	–	–	–
O=c1c(-c2ccccc2F)nc2c[nH]c3ccccc3n1-2 [compound 2]	7.64	7.44	18	7.48	7.92	40	–	–	–
O=c1[nH]c2c(n1-c1nc3ccc(F)c(F)c3o1)CCCCC2 [compound 7]	8.05	–	18	8.30	8.40	51	6.76	–	oocyte electrophysiology maximum potentiation α3β3γ2 ([1]; Xenopus laevis oocytes): 83%
c1cc2c(cc1-c1ncc3[nH]c4c(c3n1)CCCC4)OCO2 [compound 9]	–	–	33	7.13	–	–	–	6.48	step-down passive avoidance, minimal efficacious dose [5]: 0.5 mg/kg; Emax [1]: 23%; pEC50 [4, 14]: 6.74; Emax [4]: 53%
CCOc1ccc(NC(=O)c2c[nH]c3c2C(=O)CCC3)cc1 [compound 3]	7.64	7.44	–	7.48	7.92	–	6.73	6.88	pEC50 [3, 15]: 6.97; Emax [3]: 26%; pEC50 [4, 14]: 6.97; Emax [4]: 52%; Porsolt swim test, minimal efficacious dose [6]: 20 mg/kg; spontaneous locomotor activity, minimal efficacious dose [7]: 4 mg/kg
Cc1nnc2n1-c1ccc(Cl)cc1C(c1ccccc1)=NC2 [Alprazolam, reference compound]	7.16	8.00	–	7.43	7.92	–	–	–	–
CCOc1ccc(-n2c(=O)c3c[nH]c4ccccc4n-3c2=O)cc1 [compound 1]	7.46	–	12	8.22	7.70	71	–	6.84	pEC50 [3, 15]: 6.80; pEC50 [4, 14]: 6.94; Porsolt swim test, minimal efficacious dose [6]: 20 mg/kg
COc1ccc(NC(=O)c2c[nH]c3c2C(=O)CC(C)(C)C3)c(F)c1 [compound 6]	7.48	–	–	7.36	7.55	72	6.97	–	step-down passive avoidance, minimal efficacious dose [5]: 4 mg/kg; oocyte electrophysiology maximum potentiation α3β3γ2 ([1]; Xenopus laevis oocytes): 95%; Emax [2]: 42%; Emax [3]: 25%
CNCc1ccc(NC(=O)c2c[nH]c3c2C(=O)CCCC3)cc1 [compound 4]	7.29	–	23	7.32	7.72	66	6.73	6.88	pEC50 [3, 15]: 6.97; pEC50 [4, 14]: 6.97; Porsolt swim test, minimal efficacious dose [6]: 20 mg/kg
CC(C)(C)OC(=O)c1ncn2c1C1CCCN1C(=O)c1c(Br)cccc1-2 (centres unmarked) [Ro16-6028, reference compound]	–	–	–	–	–	–	–	–	Porsolt swim test, minimal efficacious dose [6]: 1 mg/kg; spontaneous locomotor activity, minimal efficacious dose [7]: 0.06 mg/kg
O=c1c2c[nH]c3ccccc3n-2c(=O)n1-c1ccc(F)cc1 [compound 10]	7.34	7.09	–	–	7.51	–	–	–	–
COc1ccc(F)c(-c2ncc3[nH]c4c(c3n2)CCCC4)c1 [compound 11]	–	–	–	7.68	7.02	–	6.07	6.75	–
CC1CC(=O)c2c(C(=O)Nc3ccc(F)cc3)c[nH]c2C1 (centres unmarked) [compound 8]	7.43	7.40	17	7.85	7.41	42	–	–	oocyte electrophysiology maximum potentiation α3β3γ2 ([1]; Xenopus laevis oocytes): 61%; oocyte electrophysiology maximum potentiation α5β3γ2 ([2]; Xenopus laevis oocytes, human subunits, GABA at EC10, negative = inverse agonism): 16%
O=C(Nc1ccccc1)c1c[nH]c2c1C(=O)CCCC2 [compound 13]	7.44	7.64	–	8.52	7.28	–	–	–	–
Cc1ccc(-c2nc3ccc(C)cn3c2CC(=O)N(C)C)cc1 [Zolpidem, reference compound]	–	–	–	–	–	–	–	–	step-down passive avoidance, minimal efficacious dose [5]: 0.5 mg/kg; Emax [1]: 882%; EC50 ([2]; oocyte electrophysiology EC50 α5β3γ2, Xenopus laevis oocytes, human subunits, μM): > 3 µM; Emax [2]: < 20%; Emax [4]: 350%
